Data: US6071946A, “Tricyclic urea compounds” (Adir et Compagnie, priority 1994, dated 2000)

Key:
melatonin receptors = biological target: T1, melatonin receptors (Ovis aries, UniProt P48040); experiment: Binding to melatonin receptors, sheep pars tuberalis cells (competition with 2-iodo-melatonin); conditions: sheep pars tuberalis membranes
T1 construct: Sheep pars tuberalis membranes are prepared and used as target tissue; from tissue; host or cells: sheep pars tuberalis membranes
Experimental: B1) Study on Sheep Pars Tuberalis Cells
Studies of the binding of the compounds of the invention to melatonin receptors were carried out according to conventional techniques on sheep pars tuberalis cells. The pars tuberalis of the adenohypophysis is in fact characterized, in mammals, by a high density of melatonin receptors (Journal of Neuroendocrinology, 1, pp 1-4, 1989).
1) Sheep pars tuberalis membranes are prepared and used as target tissue in saturation experiments in order to determine the binding capacities and affinities for 2-(^125 I) iodomelatonin.
2) Sheep pars tuberalis membranes are used as target tissue, with the various compounds to be tested, in competitive binding experiments with respect to 2-iodo-melatonin.
Each experiment is carried out in triplicate and a range of different concentrations is tested for each compound.
The results make it possible to determine, after statistical treatment, the binding affinities of the compound tested.

[1] = Foregoing pharmacological Examples (A to I), carbamides or ureas substituted for the compounds of Examples 119 and 131; conditions: in place of the compounds of Examples 119 and 131
C3H/He mice = experiment: Free exploratory test in C3H/He mice; assay type: in vivo; conditions: oral
Experimental: Effects in the free exploratory test in C3H/He mice
Behavior was assessed in a box subdivided into six equal square exploratory units, which were interconnected by small doors. It could be divided in half lengthwise by closing partitions. Twenty-four hours before the test, each animal was randomly placed in one half of the apparatus, with the temporary partitions in place, in order to become familiarized with it. […]
numbers of attempts towards the unfamiliar compartment latency of the first entry into the unfamiliar compartment time spent in the unfamiliar compartment locomotion in the unfamiliar compartment number of rears in the unfamiliar compartment locomotion in the familiar compartment number of rears in the familiar compartment
Compounds were orally administered at doses of […] (in 1% HEC), 40 minutes before the test.
The […] group received the vehicle under the same conditions.

[2] = 40 minutes before test, statistically significant for the 3 tested doses

T1 sequence (P48040 whole entry): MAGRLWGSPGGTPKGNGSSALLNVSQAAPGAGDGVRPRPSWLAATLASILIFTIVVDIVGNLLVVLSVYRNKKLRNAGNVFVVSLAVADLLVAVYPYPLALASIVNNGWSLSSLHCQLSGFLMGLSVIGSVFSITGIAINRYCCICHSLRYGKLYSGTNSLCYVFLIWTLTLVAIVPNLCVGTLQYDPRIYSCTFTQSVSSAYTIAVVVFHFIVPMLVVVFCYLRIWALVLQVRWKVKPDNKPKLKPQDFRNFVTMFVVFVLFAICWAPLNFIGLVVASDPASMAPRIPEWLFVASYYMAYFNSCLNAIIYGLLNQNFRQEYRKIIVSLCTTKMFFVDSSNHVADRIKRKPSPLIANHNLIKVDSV

In the case of `CC(=O)NCCc1cccc2ccc3c(c12)CC(C)O3` (stereo not shown) [Example 119, 2,3-DIHYDRO-2-METHYL-4-(2-ACETAMIDOETHYL)1-NAPHTHO[2,1-b]-FURAN], the “affinity for melatonin receptors (in words)” value (melatonin receptors) is reported as “extremely powerful affinity”.

In the case of `CNC(=O)NCCc1cccc2ccc3c(c12)CC(C)O3` (stereo not shown) [Example 120, N-[2-(2,3-DIHYDRO-2-METHYL-1-NAPHTHO[2,1-b]FURAN-4-YL)ETHYL]-N'-METHYLUREA], the “results in the foregoing pharmacological Examples, compared with the compounds of Examples 119 and 131” value [1] is reported as “approximately equally statistically-significant results”.

In the case of `CC(=O)NCCc1coc2ccc3c(c12)CCCO3` [Example 131, N-[2-(8,9-Dihydro-7H-furo[3,2-f]chromen-1-yl)ethyl]acetamide], the “latency of the first entry into the unfamiliar compartment” value (C3H/He mice; [2]) is reported as “dose-dependently reduced”, the “locomotion in the unfamiliar compartment” value (C3H/He mice; [2]) is reported as “increased the locomotion in the unfamiliar compartment” and the “numbers of attempts towards the unfamiliar compartment” value (C3H/He mice; [2]) is reported as “dose-dependently reduced”. For the same compound, the “number of rears in the unfamiliar compartment” value (C3H/He mice; at 25 mg/kg (highest dose)) was “significantly increased the number of rears in the unfamiliar compartment” and the “time spent in the unfamiliar compartment” value (C3H/He mice; at 5 and 25 mg/kg) was “significantly increased the time spent in the unfamiliar compartment”.
